Test results as given in patent US11648222B2, “Use of CYP26-resistant RAR alpha selective agonists in the treatment of cancer” (Io Therapeutics, Inc., priority 2015, dated 2023).

Experiments:
[1] = test system: MM H929 cell lines and MM CD138+ primary cells; test: qRT-PCR of B cell and PC markers in MM cells with or without BM stroma coculture; format: cell-based, human; conditions: for mRNA expression of B cell and PC markers (BCL6, BLIMP1, XBP1s, CHOP): compound 1 μM for 5 days; for expression of differentiation markers by qRT-PCR or flow cytometry: liquid conditions versus BM stroma
Protocol: Cell cultures. All cell lines were purchased from the American Type Culture Collection. H929, MM1s, and U266 cells were cultured in RPMI 1640 with 10% FCS (Sigma-Aldrich), 2 mM L-glutamine, and 100 μg/ml penicillin-streptomycin (P/S). OP-9 cells were cultured in α-MEM, 20% FCS, L-glutamine, and P/S. Cell lines were authenticated by short-tandem repeat profiling.
Primary MM cells were obtained from patients with newly diagnosed or relapsed MM under an IRB-approved protocol at The Johns Hopkins University. Briefly, mononuclear cells were isolated from fresh BM aspirates by density gradient centrifugation (Ficoll-Paque); CD138+ cells were then selected via magnetic beads and columns and incubated in RPMI 1640, 10% FCS, L-glutamine, and P/S at 37° C.
(§1) Coculture experiments. 24-well plates were coated with 0.1% gelatin in PBS for 30 min at 37° C. The gelatin solution was removed, and the stromal cells were cultured overnight at a density of 5×10^4 cells/well to obtain a confluent monolayer. At that time, MM cell lines or primary MM cells (1×10^5 in 2 ml) were added to the stroma cultures. The stroma cocultures were incubated at 37° C. in RPMI containing 10% FCS, L-glutamine, and P/S, with or without AGN19194310 (1 μM for 5 days), R115866 (1 μM for 5 days), IRX5183 (1 μM for 5 days), or BTZ (2.5 nM for 48 hr).
(§2) qRT-PCR. Total RNA was extracted using the RNeasy Mini Kit (QIAGEN) according to the manufacturer's instructions. cDNA was synthesized by reverse transcription using the iScript cDNA Synthesis Kit (Bio-Rad). qRT-PCR was performed with iTaq SYBR Green Supermix (Bio-Rad) using sequence specific primers. Gene expression was normalized to GAPDH, and relative quantification was calculated using ΔΔCt. All experiments were performed in duplicate and run on the Bio-Rad CFX96 machine.

MM cells = test: Surface CD138 expression of MM cells by flow cytometry; format: cell-based, human
Protocol: as §1
Flow cytometry. Following treatment, MM cells were collected, washed with PBS, and stained for 15 min at room temperature with phycoerythrin-conjugated (PE-conjugated) anti-CD138. Cells were washed to remove unbound antibody and evaluated in a FACSCalibur system (BD Biosciences). Stromal cells were identified by GFP expression, and viable cells were identified using 7-aminoactinomycin D (7-AAD). To calculate cell numbers, live GFP-cells were normalized to calibration beads.

[2] = test system: MM cell lines and MM CD138+ primary cells; test: BTZ sensitivity (clonogenic or cellular recovery) of MM cells after incubation with BM stroma; format: cell-based, human; conditions: for effect on stroma-induced BTZ resistance: stroma coculture with compound 1 μM 5 days
Protocol: as §1
Mobilization experiments. MM cells were separated from BM stromal cells by gently pipetting several times around the well. Detached cells were centrifuged, resuspended in fresh media, and incubated in a 24-well plate for 1 hr at 37° C. During this short incubation period, contaminating stromal cells attached to the well, while MM cells remained in suspension. MM cells were then recovered by gently pipetting. This protocol was used for qRT-PCR and CFU coculture experiments. The purity achieved using this protocol was confirmed by flow cytometry to be 98%-99% MM cells and less than 2% contaminating stroma.
Clonogenic assays. After treatment, MM cells were collected, washed with PBS, and plated at a density of 5,000 cells/ml in 1 ml of 1.32% methylcellulose supplemented with 30% FBS, 10% BSA, L-glutamine, P/S, and 0.1 mM p-ME. Cells were plated in triplicate in 35-mm culture dishes, incubated at 37° C., and scored for the presence of colonies 14 days later.

[3] = test system: FLT3/ITD acute myeloid leukemia (AML) cells; conditions: recent studies; cited from earlier work
[4] = test system: OCI-AML 3, Kasumi-1 and APL NB4 cells; test: Clonogenic growth of AML cell lines in the presence or absence of stroma; format: cell-based; conditions: for clonogenic growth (CFU) compared to control: off and on stroma, NB4: 10^-7 M IRX5183, 10^-8 M AM80, OCI-AML3, Kasumi-1: 10^-6 M IRX5183, 10^-7 M AM80; for clonogenic growth: presence or absence of stroma
Protocol: The BM stroma, which expresses inducibly high levels of CYP26, metabolically inactivates ATRA and provides a protected environment for AML cancer stem cells. Synthetic, CYP26-resistant RARα agonists, such as IRX5183 and AM80, should be able to bypass stroma-mediated protection of AML cells and differentiate the cancer stem cells resident in the protected environment of bone marrow niche. To test these hypotheses, clonogenic growth experiments were conducted in the non-APL AML cell lines OCI-AML 3 and Kasumi-1 and APL NB4 cells, which were treated with ATRA, IRX5183, and AM80 in the presence or absence of stroma.

[5] = test system: H929 Luc+ cells with WT or Smo-KO stroma; test: Subcutaneous xenograft model of MM-niche interactions (WT or Smo-KO stroma); format: in vivo, NSG mice
Protocol: Mouse xenografts. 1×10^6 H929 Luc+ cells and 1×10^6 mouse BM stromal cells were resuspended in 100 μl Matrigel, diluted with RPMI (1:1), and injected subcutaneously into 16-week-old male NSG mice. After 4 days, treatment with BTZ (0.5 mg/kg i.p. twice weekly) and IRX (10 mg/kg i.p. daily) was initiated. Tumor burden was assessed by bioluminescence using the In Vivo Imaging System (PerkinElmer). For imaging, mice were exposed to 120 mg/kg D-luciferin via intraperitoneal injection […] before imaging and were anesthetized using isoflurane. Images were analyzed with Living Image Software, version 2.5 (PerkinElmer), and data were quantified as photons/second.
To study to what extent an RA-low environment created by the BM stroma and enhanced by MM cells via paracrine Hedgehog signaling contributes to BTZ resistance, a xenograft model of MM-niche interactions was developed. Each mouse carried 2 subcutaneous tumors consisting of H929 Luc+ cells and either WT (anterior tumors) or Smo-KO stroma (posterior tumors). Mice were treated with IRX (10 mg/kg i.p. daily), BTZ (0.5 mg/kg i.p. twice weekly), or a combination of both. The growth of tumors bearing WT or Smo-KO stroma was not different in untreated or IRX-treated groups (FIGS. 7 and 8). […] While some tumors in the treatment group receiving combined IRX and BTZ appeared to have regressed completely, even after anatomical study, this was not the case for all the mice in this group.

[6] = test system: H929 luciferase+ (Luc+) cells; test: Systemic MM xenograft, bioluminescence imaging; format: in vivo, NSG mice; conditions: 4 weeks; for tumor burden (bioluminescence): monotherapy, BTZ 0.5 mg/kg i.p. twice weekly or IRX 10 mg/kg once daily
Protocol: For the systemic MM model, 2×10^6 Luc+/GFP+H929 cells were injected via the tail vein into 16-week-old male NSG mice. After engraftment, as determined by an exponential increase in bioluminescence, mice were treated with BTZ (0.5 mg/kg i.p.) twice weekly and with IRX (10 mg/kg) once daily. Tumor burden was assessed by bioluminescence, as above.
To test whether retinoids can enhance BTZ activity in MM, a systemic MM xenograft was developed by injecting 2×10^6 H929 luciferase+(Luc+) cells via the tail vein of nonobese, diabetic, severe combined immunodeficiency IL-2 receptor γ-KO (NSG) mice. The animals were randomized to receive IRX, BTZ, or a combination of both, and disease burden was followed weekly by bioluminescence imaging (FIG. 4).

[7] = test system: BM stromal cells cocultured with MM cells; test: Stromal Cyp26a1 upregulation by MM cells in coculture; format: cell-based, mouse; conditions: SMO inhibitor in coculture
Protocol: as §1, §2
To confirm the role of paracrine Hedgehog on this interaction, smoothened (Smo), a membrane receptor that transduces SHH signaling, was knocked out at the genomic level in the mesenchymal compartment. For this, BM mesenchymal cells derived from Smo^fl/fl mice were transduced with a retroviral vector encoding Cre recombinase (Smo-KO stroma). […]

[8] = test system: relapse/refractory MM patients; conditions: in combination with BTZ; cited from earlier work
BM stromal cells = test: Effect of soluble factors on CYP26A1 expression in BM stromal cells; format: cell-based; conditions: soluble factor added to BM stromal cells
Protocol: as §2

[9] = BM stromal cell cocultures incubated with compound

Compound: CCc1ccc(C2=CC(C)(C)Sc3ccc(C#Cc4ccc(C(=O)O)cc4)cc32)cc1 [AGN194310]
- mRNA expression of B cell and PC markers (BCL6, BLIMP1, XBP1s, CHOP) ([1]; absence of stroma (Liquid)): mimicked the changes induced by BM stromal cells
- surface CD138 expression (MM cells; absence of stroma, incubation with compound): markedly decreased
- effect on BTZ sensitivity ([2]; absence of stroma, compound 1 μM 5 days, then BTZ): decreasing BTZ sensitivity

Compound: CC1(C)CCC(C)(C)c2cc(NC(=O)c3ccc(C(=O)O)cc3)ccc21 [AM80, 4-[(5,6,7,8-tetrahydro-5,5,8,8-tetramethyl-2-naphthalenyl)carbamoyl]benzoic acid]
- differentiation and sensitivity to FLT3 inhibitors [3]: differentiates FMS-like tyrosine kinase 3/internal tandem duplication (FLT3/ITD) acute myeloid leukemia (AML) cells and increase their sensitivity to FLT3 inhibitors
- clonogenic growth (CFU) compared to control [4]: decrease in clonogenic growth compared to control
- clonogenic growth [4]: inhibited clonogenic growth in the presence of stroma but not as effectively as IRX5183

Compound: CC(C)C[C@H](NC(=O)[C@H](Cc1ccccc1)NC(=O)c1cnccn1)B(O)O [BTZ, bortezomib]
- tumor response (bioluminescence) ([5]; tumors carrying Smo-KO stroma, BTZ 0.5 mg/kg i.p. twice weekly): significant response
- tumor response (bioluminescence) ([5]; tumors with WT stroma, BTZ 0.5 mg/kg i.p. twice weekly): refractory to BTZ treatment
- BTZ resistance after separation from BM stroma ([2]; H929 cells, 5-day stroma coculture, fresh media 0 to 48 hr, then BTZ): remained partially resistant to BTZ for up to 48 hr following detachment from stroma
- sensitivity of MM cells to BTZ ([2]; Smo-KO stroma compared with WT stroma): increased sensitivity to BTZ
- sensitivity of MM cells to BTZ ([2]; absence of BM stroma (liquid), BTZ 2.5 nM 48 hr): highly sensitive to BTZ
- sensitivity of MM cells to BTZ ([2]; after 5 days incubation with BM stroma, BTZ 2.5 nM 48 hr): incubation with BM stroma induced BTZ resistance
- tumor burden (bioluminescence) [6]: decreased tumor growth compared with untreated controls

Compound: CC1(C)CCC(C)(C)c2c1cc(C(=O)Nc1cc(F)c(C(=O)O)c(F)c1)c(O)c2Cl [IRX5183]
- growth of tumors bearing WT versus Smo-KO stroma ([5]; IRX 10 mg/kg i.p. daily alone): not different
- tumor response (bioluminescence) ([5]; combination of IRX 10 mg/kg daily and BTZ 0.5 mg/kg twice weekly, WT and Smo-KO stroma): significant and equivalent response, regardless of the phenotype of the stromal compartment
- expression of differentiation markers by qRT-PCR or flow cytometry [1]: induced comparable changes, irrespective of the presence or absence of BM stroma
- mRNA expression of B cell and PC markers (BCL6, BLIMP1, XBP1s, CHOP) ([1]; stroma cocultures): restored all markers to levels comparable to those of liquid control conditions
- surface CD138 expression (MM cells; [9]): restored CD138 expression
- clonogenic growth (CFU) compared to control [4]: decrease in clonogenic growth compared to control
- clonogenic growth [4]: inhibited clonogenic growth to a similar extent in the presence or absence of stroma
- effect on stroma-induced BTZ resistance ([2]; then BTZ): overcome
- disease burden (bioluminescence) ([6]; IRX 10 mg/kg daily combined with BTZ 0.5 mg/kg twice weekly): significant (P<0.01) decrease in disease burden
- tumor burden (bioluminescence) [6]: decrease in tumor burden compared with untreated mice

Compound: CCC(CC)C(c1ccc(Nc2nc3ccccc3s2)cc1)n1cncn1 (centres unmarked) [R115866]
- expression of differentiation markers by qRT-PCR or flow cytometry [1]: did not significantly affect the expression of differentiation markers
- mRNA expression of B cell and PC markers (BCL6, BLIMP1, XBP1s, CHOP) ([1]; stroma cocultures): restored all markers to levels comparable to those of liquid control conditions
- surface CD138 expression (MM cells; [9]): restored CD138 expression
- effect on BTZ resistance after separation from BM stroma ([2]; H929 cells, coculture treated with compound 1 μM before separation): prevented the development of a BTZ-resistant phenotype
- effect on stroma-induced BTZ resistance ([2]; then BTZ): overcome

Compound: CC1=C2C[C@H]3[C@@H](CC=C4C[C@@H](O)CC[C@@]43C)[C@@H]2CC[C@]12O[C@@H]1C[C@H](C)CN[C@H]1[C@H]2C [cyclopamine]
- stromal Cyp26a1 upregulation by MM cells [7]: partially overcame stromal Cyp26a1 upregulation by MM cells

Compound: c1cc(CN2CCCNCCNCCCNCC2)ccc1CN1CCCNCCNCCCNCC1 [plerixafor]
- response rates [8]: improved response rates

Compound: IL-6: cytokine, soluble factor produced by MM cells
- upregulation of CYP26A1 on BM stromal cells (BM stromal cells): no significant effects

Compound: TNF-α
- upregulation of CYP26A1 on BM stromal cells (BM stromal cells): no significant effects
